Reference: publication PMC5855688, “BC-Box Motif-Mediated Neuronal Differentiation of Somatic Stem Cells” (International Journal of Molecular Sciences, 2018)

What was measured:
[1] = tested on: skin-derived precursors (SKPs); test: Western blot analysis of NFH protein; assay type: cell-based, rat (neonate Wistar); conditions: three days after treatment, Figure 3B, peptides at 1 to 5 μM, less than VHL(157–171): VHL(157–168) p < 0.01, TAT p < 0.001
Method: (§1) Rodent skin-derived precursor cells (SKPs), which can differentiate to neurons, were used. SKPs were previously isolated from the back dermis of neonate Wistar rats by the authors. These cells were cultured in growth medium composed of DMEM/F12 (1:1; Gibco, Grand Island, NY, USA) containing 2% B27 supplement (Gibco), 20 ng/mL epidermal growth factor (EGF; Upstate Biotechnology, Lake Placid, NY, USA), and 40 ng/mL bFGF (PeproTech EC Ltd., Rocky Hill, NJ, USA) in a humidified incubator at 37 °C with 5% CO2. The floating clusters of cultured cells were centrifuged and dissociated into a single-cell suspension by use of a Pasteur pipette with a flame-polished tip. These single cells were then re-suspended into at a concentration of 50,000 cells/mL for passage or experiments.
(§2) For neuronal differentiation, cells were dissociated into a single-cell suspension by use of a Pasteur pipette and re-suspended into a concentration of 50,000 cells/mL in DMEM/F12 without serum, neurotrophic factors or growth factors. Then, the cells were cultured on poly-L-lysine-coated dishes or cover glasses, and the synthesized peptides at concentrations from 1 to 5 μM were added to the culture medium and delivered into the cells. Three days or more later, the cells were used for morphological, immunocytochemical, immunohistochemical, electrophysiological and immunoprecipitation studies, as well as for Western blot analysis.
Cultured cells were washed 3 times in cold PBS and then scraped into ice-cold PBS. After incubation on ice for 10 min, the cells were lysed with lysis buffer and centrifuged, after which the supernatants were collected. Each sample was separated by SDS-PAGE under reducing conditions and transferred electrophoretically to nitrocellulose filters. Non-specific binding of antibody was blocked by incubation with 5% donkey serum for 1 h. Western blots were probed with anti-MAP2 antibody, anti-NFH antibody, anti-ChAT antibody, anti-GAD antibody, anti-rhodopsin antibody, anti-TH antibody, and anti-elongin C antibody (Santa Cruz, San Diego, CA, USA) followed by horseradish peroxidase-conjugated secondary antibodies. Protein bands were detected by using a chemical luminescence detection system (ECL Plus Western Blotting Reagent Pack, Amersham, Hemel Hempstead, UK). Images were analyzed with LAS-1000 (Fujifilm, Tokyo, Japan), and the density of the bands was determined by using Image Gauge software (Fujifilm).

[2] = tested on: rat brain; test: Immunohistochemistry (NeuN) of transplanted peptide-treated cells in rat brain; assay type: in vivo, rat (Wistar); conditions: 1 × 10^5 peptide-treated cells transplanted into rat brain, 6 weeks; mean ± SEM; vs VHL(157–171): p < 0.01 for VHL(157–168), p < 0.005 for TAT
Method: To evaluate neuronal differentiation of transplanted cells in rat brains, immunohistochemical study was performed as described previously. Before grafting, cells were preincubated with red fluorescence PKH26PCL (Sigma, St. Louis, MO, USA). […] Rats were anesthetized with isoflurane before surgery, and 1 × 10^5 cells were transplanted into rat brain. The rats were perfused with periodate-lysine-paraformaldehyde solution 6 weeks after the transplantation. Their brains were subsequently dissected and postfixed in the same medium for 2 h, cryopreserved in 30% sucrose for 12 h, and then embedded in Tissue Tek OCT compound (Sakura, Tokyo, Japan). Cryostat coronal sections of 14-μm thickness were prepared for immunohistochemistry. For immunostaining, sections were incubated with primary antibody, anti-NeuN antibody, and then incubated in secondary antibody, FITC-conjugated anti-rabbit IgG. Counterstaining was done with DAPI. In immohistochemistry, observations were made with a confocal immunofluorescence microscope (FV300, Olympus, Tokyo, Japan).
Wistar rats (Clea, Tokyo, Japan) were used in all experiments and housed in a temperature controlled room on a 12-h day/night cycle with free access to food and water. All animal experimental procedures were approved by the Institutional Animal Use Committee of Yokohama City University (ID 153, 1 April 2015) and were in accordance with National Institutes of Health guidelines for care and use of laboratory animals.

[3] = tested on: skin-derived precursors (SKPs); test: Neurite outgrowth / morphological evaluation of neuronal differentiation; assay type: cell-based, rat (neonate Wistar); conditions: peptides at 1 to 5 μM; for Neurite Outgrowth Activity: Figure 2A, rates of cells having neurites, VHL157–168 vs VHL(157–171) p < 0.005
Method: as §1, §2
Neurite outgrowth with length exceeding the diameter of the neuronal soma is often assessed as a morphological index of neuronal differentiation. After a single-cell suspension was made by pipetting, the cells were cultured in DMEN/F12 medium alone at 37 °C in a 5% CO2 incubator. Thereafter, neurite outgrowth was evaluated with the following 4 levels: +++, for above 50% of the cells showing neurite outgrowth; ++, for 20–50% with neurite outgrowth; +, for 5–19% having neurite outgrowth; and −, for below 5% of the cells with neurite outgrowth.

[4] = tested on: skin-derived precursors (SKPs); test: Whole-cell patch-clamp electrophysiology; assay type: cell-based, rat (neonate Wistar); conditions: five days after peptide addition at 3 μM, holding potential −80 mV, steps of 20 mV from −100 to 100 mV, VHL(157–168) vs VHL(157–171) p < 0.01
Method: as §1, §2
To record fast sodium and delayed rectifier potassium currents, we prepared extracellular and intracellular solutions as described previously. […] For recordings and data analysis we used CEZ-2300 (Nihon Kohden, Tokyo, Japan) and pCLAMP 6.0 software (Axon Instruments, Burlingame, CA, USA). Linear components of leak and capacitive currents were reduced by analogue circuitry and then canceled by the P/N method. Signals were sampled every 20 μs, and currents were filtered at 5 kHz. Data were additionally processed with Origin 5.0 (Microcal, Northhampton, MA, USA).

[5] = tested on: skin-derived precursors (SKPs); test: Immunocytochemistry with anti-Neurofilament-H (NFH) antibody; assay type: cell-based, rat (neonate Wistar); conditions: immunocytochemistry, peptides at 1 to 5 μM; mean ± SEM; vs VHL(157–171): p < 0.01 for VHL(157–168), p < 0.005 for TAT
Method: as §1, §2
Cultured cells were fixed with 4% paraformaldehyde in PBS (Phosphate buffered saline) for 10 min at room temperature. Cells were incubated for 1 h at room temperature with primary antibodies. Antibodies against anti-MAP2 antibody (Sigma-Aldrich, St. Louis, MO, USA), anti-Neurofilment-H (NFH) antibody (Sigma-Aldrich), anti-NeuN antibody (Merk Millipore, Billerica, MA, USA), anti-GFAP antibody (DAKO, Santa Clara, CA, USA), anti-tyrosine hydroxylase (TH) antibody (Merk Millipore, Billerica, MA, USA), anti-choline acetyl transferase (ChAT) antibody (Abbiotec, San Diego, CA, USA), anti-glutamic acid decaboxylase (GAD) antibody (Enzo Life Sciences, Flamingdale, NY, USA), and anti-rhodopsin antibody (Santa Cruz, San Diego, CA, USA) were used. […] Nuclear counterstaining was done with DAPI (Molecular Probes, Eugene, OR, USA) or TO-PRO-3 (Molecular Probes), and observations were made with a fluorescence microscope system (FV300, Olympus, Tokyo, Japan). We counted the number of immuno-positive cells with a given antibody in 4 to 6 random non-overlapping visual fields (50–200 cells per field) in each experiment. […] The degree of positivity was expressed as the rate of immuno-positive cells to the total number of nuclei stained with DAP1 or TO-PRO-3.

[6] = target: T1, elongin BC (Homo sapiens, UniProt Q15369+Q15370); test: Isothermal titration calorimetry (ITC); assay type: binding
T1 construct: made in house; host or cells: E. coli BL21 (DE3), pCDFDuet-1
Method: In order to determine the crucial peptide sequence for elongin BC binding by isothemal titration caloritetry (ITC), recombinant proteins of elongin B and elongin C were prepared as follows. […] For purification, cell pellets were lysed by sonication in buffer A (20 mM Tris-HCl, pH 8.0, 0.5 M NaCl, 10 mM imidazole), and the soluble fraction was loaded onto Ni-NTA resin (Qiagen, Venlo, Netherlands) and eluted with buffer B (20 mM Tris-HCl (pH 8.0), 0.5 M NaCl, 250 mM imidazole). Eluted proteins were then loaded onto a Mono Q column followed by a Superdex 75 10/300 GL column (GE Healthcare, Chicago, IL, USA). For the ITC experiments, the elongin BC solution was exchanged with buffer C (20 mM HEPES-NaOH (pH 8.0), 150 mM NaCl) by using size-exclusion chromatography. Assays to assess the binding of peptides to elongin BC were performed by using a MicroCal iTC200 isothermal titration calorimeter (GE Healthcare, Chicago, IL, USA). […] The concentration of elongin BC was adjusted to a final one of 35 μM and injected into the sample cell (204 μL). One mM peptide was titrated into the protein solution as 40 consecutive 1.0-μL aliquots at 120-s intervals at 25 °C. The first injection volume was 0.4 μL, and the observed thermal peak was excluded from the data analyses. Duplicate experiments were performed independently. […] The KD values were calculated from duplicate thermograms.

[7] = tested on: JAK2; test: Western blotting of JAK2 before and after peptide treatment; assay type: cell-based, rat; conditions: Western blot, Figure 5B, p < 0.01
[8] = tested on: STAT3; test: Western blotting of STAT3 before and after peptide treatment; assay type: cell-based, rat; conditions: Western blot, Figure 5B, p < 0.01

T1 sequence (Q15369 17-112): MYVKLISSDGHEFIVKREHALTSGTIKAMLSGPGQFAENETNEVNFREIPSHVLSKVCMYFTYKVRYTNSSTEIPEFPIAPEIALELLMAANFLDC
T1 sequence (Q15370 whole entry partner): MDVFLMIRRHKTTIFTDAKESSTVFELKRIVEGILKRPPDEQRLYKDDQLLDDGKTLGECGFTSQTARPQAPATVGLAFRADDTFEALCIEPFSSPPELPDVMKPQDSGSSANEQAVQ

| Sequence | NFH protein amount / band [1] | Positive rates of NeuN [2] | Neurite Outgrowth Activity [3] | Voltage-gated outward K+ and inward Na+ currents [4] | Percentage of NFH-positive cells [5] | ΔS ([6]; 25 °C, 20 mM HEPES-NaOH (pH 8.0), 150 mM NaCl, mean ± S.D. of two independent replicates) | Elongin BC binding affinity ([6]; two residues deleted from the N-terminus, p < 0.0001) | JAK2 degradation [7] | STAT3 degradation [8] | Morphological change ([3]; phase-contrast microscopy, Figure 1E) |
| --- | --- | --- | --- | --- | --- | --- | --- | --- | --- | --- |
| YARAAARQARATLKERCLQVVRS [VHL(157–168), BC-box motif plus two amino acids, conjugated with PTD] | a less distinct band for NFH | 9.2 ± 1.8% | significantly weaker neurite outgrowth activity than VHL(157–171) | both significantly smaller outward potassium and inward Na^+ currents | 10.1 ± 2.2% | – | – | – | – | – |
| TLKERCLQVVRS [VHL157–168, VHL peptide without TAT, for ITC, synthesized by CS Bio Co] | – | – | – | – | – | −8.54 ± 0.74 cal/mol/deg | – | – | – | – |
| YARAAARQARAKERCLQVVRS [VHL(159–171), pVHL fragment conjugated with PTD] | – | – | scarcely did | – | – | – | complete loss of elongin BC binding affinity | – | – | – |
| YARAAARQARA [TAT, modified TAT protein transduction domain peptide, reference compound] | a faint band | 3.2 ± 0.8% | scarcely did | no current was elicited | 6.9 ± 1.5% | – | – | Bands for JAK2 and STAT3 were found for pre-treated cells or TAT-treated cells more than post-treated cells | Bands for JAK2 and STAT3 were found for pre-treated cells or TAT-treated cells more than post-treated cells | no morphological change |
